Test results reported in patent US20100105647A1 (priority 2007, published 2010).

Tested on: Alternaria brassicicola
Assay: Test of Preventive Effect on Japanese Radish Alternaria Leaf Spot
Type: in vivo
Conditions: Japanese radish (cultivar: Wase 40-nichi), foliage application 500 ppm, 1 day high humidity at 24° C. plus 3 days greenhouse
Protocol: The controlling effect was evaluated by visually observing the area of lesion spots on each of test plants at the time of investigation and comparing the area of lesion spots on a plant treated with the present compound with that on an untreated plant.
Test of Preventive Effect on Japanese Radish Alternaria Leaf Spot (Alternaria brassicicola)
Each of plastic pots was filled with sandy loam and sown with Japanese radish (cultivar: Wase 40-nichi), followed by growing in a greenhouse for 5 days. Each of the present compounds 1-19, 21-40 and 41 was formulated into a flowable formulation according to Formulation Example 6. The flowable formulation was diluted to a predetermined concentration (500 ppm) with water, and foliage application of the dilution was carried out so that the dilution adhered sufficiently to the surfaces of leaves of the Japanese radish. After the foliage application, the plant was air-dried and then inoculated by spraying a water suspension of spores of Alternaria brassicicola. After the inoculation, the plant was held under high humidity conditions at 24° C. for 1 day and held in a greenhouse for 3 days, and then the area of lesion spots was investigated.

For `C#CCOc1c(F)cc(C(=O)NCC2=CCCCC2)cc1F` [compound 18], the “area of lesion spots on the treated plant relative to that on an untreated plant” value was at most 30%.
